{"source": "ChEMBL document CHEMBL4619760", "about": "“Anti-inflammatory Efficacy of Combined Natural Alkaloid Berberine and S1PR Modulator Fingolimod at Low Doses in Ulcerative Colitis Preclinical Models” (J Nat Prod, 2020)", "key": {"[1]": {"test": "(§1) Toxicity in DSS-induced C57BL/6 mouse model of chronic relapsing colitis assessed as induction of abnormalities in heart at 40 mg/kg, po administered once daily for 30 days starting from day 13 post DSS-challenge by hematoxylin and eosin staining based light microscopic analysis", "format": "organism-based", "details": "in vivo, 720 h"}, "[2]": {"system": "Mus musculus", "test": "Anti-colitis activity against DSS-induced C57BL/6 mouse model of chronic relapsing colitis assessed as reduction in stool bleeding at 40 mg/kg, po administered once daily for 30 days starting from day 13 post DSS-challenge measured on day 38", "format": "functional, organism-based"}, "[3]": {"system": "Mus musculus", "test": "Anti-colitis activity against DSS-induced C57BL/6 mouse model of chronic relapsing colitis assessed as reduction in disease activity index at 40 mg/kg, po administered once daily for 30 days starting from day 13 post DSS-challenge and measured on day 43", "format": "functional, organism-based"}, "[4]": {"system": "Mus musculus", "test": "Anti-colitis activity against DSS-induced C57BL/6 mouse model of subchronic relapsing colitis assessed as reduction in spleen swelling at 40 mg/kg, po administered once daily for 14 days starting from day 5 post DSS-challenge", "format": "functional, organism-based"}, "[5]": {"biological_target": "Signal transducer and activator of transcription 3 (Homo sapiens) (UniProt P40763)", "sequence (P40763 whole entry)": "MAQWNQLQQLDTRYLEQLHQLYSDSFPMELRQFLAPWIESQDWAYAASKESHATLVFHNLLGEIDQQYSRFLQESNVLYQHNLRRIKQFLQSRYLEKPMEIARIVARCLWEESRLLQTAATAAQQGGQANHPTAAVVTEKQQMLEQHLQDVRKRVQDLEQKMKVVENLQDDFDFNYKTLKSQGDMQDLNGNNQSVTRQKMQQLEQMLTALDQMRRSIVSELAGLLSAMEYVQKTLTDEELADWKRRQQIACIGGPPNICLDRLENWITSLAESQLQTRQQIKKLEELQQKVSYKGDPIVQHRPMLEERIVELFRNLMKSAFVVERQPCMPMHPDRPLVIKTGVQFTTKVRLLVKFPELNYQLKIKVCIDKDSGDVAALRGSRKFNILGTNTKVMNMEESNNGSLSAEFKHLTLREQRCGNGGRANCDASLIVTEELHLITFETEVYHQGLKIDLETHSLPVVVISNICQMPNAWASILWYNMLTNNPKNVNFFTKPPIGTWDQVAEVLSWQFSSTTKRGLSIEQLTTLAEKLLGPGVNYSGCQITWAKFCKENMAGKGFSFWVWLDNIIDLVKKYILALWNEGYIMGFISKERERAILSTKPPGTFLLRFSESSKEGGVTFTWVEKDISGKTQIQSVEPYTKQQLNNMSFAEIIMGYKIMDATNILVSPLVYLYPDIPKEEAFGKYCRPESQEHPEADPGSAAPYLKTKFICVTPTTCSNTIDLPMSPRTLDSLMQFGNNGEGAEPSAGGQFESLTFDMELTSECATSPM", "test": "Inhibition of STAT3 activation in human THP1 cells assessed as reduction in LPS-induced phosphorylated STAT3 expression at 1 uM incubated for 1 hr followed by LPS challenge and measured after 4 to 6 hrs by Western blot analysis", "format": "cell-based", "details": "THP-1"}, "[6]": {"system": "THP-1", "test": "Antiinflammatory activity in human THP1 cells assessed as reduction in LPS-induced IL6 mRNA level at 1 uM incubated for 1 hr followed by LPS challenge and measured after 4 to 6 hrs by q-PCR method", "format": "functional, cell-based"}, "[7]": {"system": "Mus musculus", "test": "Anti-colitis activity against DSS-induced C57BL/6 mouse model of subchronic relapsing colitis assessed as reduction in stool consistency scores at 40 mg/kg, po administered once daily for 14 days starting from day 5 post DSS challenge and measured on day 19", "format": "functional, organism-based"}, "[8]": {"biological_target": "Signal transducer and activator of transcription 3 (Homo sapiens) (UniProt P40763)", "test": "Inhibition of STAT3 activation in human THP1 cells assessed as reduction in LPS-induced phosphorylated STAT3 expression at 0.5 uM cotreated with 0.5 uM berberine incubated for 1 hr followed by LPS challenge and measured after 4 to 6 hrs by Western blot analysis", "format": "cell-based", "details": "THP-1"}, "[9]": {"system": "Mus musculus", "test": "Antiinflammatory activity against DSS-induced C57BL/6 mouse model of subchronic relapsing colitis assessed as reduction in S1PR1 mRNA level at 40 mg/kg, po administered once daily for 14 days starting from day 5 post DSS-challenge by RT-qPCR analysis", "format": "functional, organism-based"}, "[10]": {"system": "Mus musculus", "test": "as §1, with “Anti-colitis activity against” for “Toxicity in”, “reduction” for “induction of abnormalities”, “DSS-induced inflammatory cell infiltration” for “heart”", "format": "functional, organism-based"}, "[11]": {"system": "Mus musculus", "test": "Effect on total S1PR1 expression in DSS-induced C57BL/6 mouse model of subchronic relapsing colitis at 40 mg/kg, po administered once daily for 14 days starting from day 5 post DSS-challenge by Western blot analysis", "format": "ADME, organism-based", "details": "in vivo, 336 h"}, "[12]": {"system": "Mus musculus", "test": "Anti-colitis activity against DSS-induced C57BL/6 mouse model of subchronic relapsing colitis assessed as reduction in stool bleeding scores at 40 mg/kg, po administered once daily for 14 days starting from day 5 post DSS challenge and measured on day 19", "format": "functional, organism-based"}, "[13]": {"system": "Mus musculus", "test": "Effect on total STAT3 expression in DSS-induced C57BL/6 mouse model of subchronic relapsing colitis at 40 mg/kg, po administered once daily for 14 days starting from day 5 post DSS-challenge by Western blot analysis", "format": "ADME, organism-based", "details": "in vivo, 336 h"}, "[14]": {"test": "Toxicity in DSS-induced C57BL/6 mouse model of chronic relapsing colitis assessed as induction of abnormalities in lung at 40 mg/kg, po administered once daily for 30 days starting from day 13 post DSS-challenge by hematoxylin and eosin staining based light microscopic analysis", "format": "organism-based", "details": "in vivo, 720 h"}, "[15]": {"system": "Mus musculus", "test": "Anti-colitis activity against DSS-induced C57BL/6 mouse model of chronic relapsing colitis assessed as reduction in stool bleeding at 40 mg/kg, po administered once daily for 30 days starting from day 13 post DSS-challenge measured on day 43", "format": "functional, organism-based"}, "[16]": {"system": "Mus musculus", "test": "Antiinflammatory activity against DSS-induced C57BL/6 mouse model of subchronic relapsing colitis assessed as reduction in IL6 mRNA level at 40 mg/kg, po administered once daily for 14 days starting from day 5 post DSS-challenge by RT-qPCR analysis", "format": "functional, organism-based"}, "[17]": {"system": "Mus musculus", "test": "Anti-colitis activity against DSS-induced C57BL/6 mouse model of subchronic relapsing colitis assessed as reduction in colon swelling at 40 mg/kg, po administered once daily for 14 days starting from day 5 post DSS-challenge", "format": "functional, organism-based"}, "[18]": {"system": "Mus musculus", "test": "Anti-colitis activity against DSS-induced C57BL/6 mouse model of subchronic relapsing colitis assessed as reduction in DSS-induced colon shortening at 40 mg/kg, po administered once daily for 14 days starting from day 5 post DSS-challenge", "format": "functional, organism-based"}, "[19]": {"system": "THP-1", "test": "Antiinflammatory activity in human THP1 cells assessed as reduction in LPS-induced TNFalpha mRNA level at 1 uM incubated for 1 hr followed by LPS challenge and measured after 4 to 6 hrs by q-PCR method", "format": "functional, cell-based"}, "[20]": {"system": "Mus musculus", "test": "Anti-colitis activity against DSS-induced C57BL/6 mouse model of chronic relapsing colitis assessed as reduction in disease activity index at 40 mg/kg, po administered once daily for 30 days starting from day 13 post DSS-challenge and measured on day 24", "format": "functional, organism-based"}, "[21]": {"system": "Mus musculus", "test": "Anti-colitis activity against DSS-induced C57BL/6 mouse model of chronic relapsing colitis assessed as reduction in stool consistency score at 40 mg/kg, po administered once daily for 30 days starting from day 13 post DSS-challenge measured on day 24", "format": "functional, organism-based"}, "[22]": {"test": "Toxicity in DSS-induced C57BL/6 mouse model of chronic relapsing colitis assessed as induction of abnormalities in liver at 40 mg/kg, po administered once daily for 30 days starting from day 13 post DSS-challenge by hematoxylin and eosin staining based light microscopic analysis", "format": "organism-based", "details": "in vivo, 720 h"}, "[23]": {"system": "Mus musculus", "test": "Anti-colitis activity against DSS-induced C57BL/6 mouse model of subchronic relapsing colitis assessed as reduction in disease activity index at 40 mg/kg, po administered once daily for 14 days starting from day 5 post DSS challenge and measured on day 19", "format": "functional, organism-based"}, "[24]": {"system": "Mus musculus", "test": "Antiinflammatory activity against DSS-induced C57BL/6 mouse model of subchronic relapsing colitis assessed as reduction in IL17 mRNA level at 40 mg/kg, po administered once daily for 14 days starting from day 5 post DSS-challenge by RT-qPCR analysis", "format": "functional, organism-based"}, "[25]": {"system": "Mus musculus", "test": "as §1, with “Anti-colitis activity against” for “Toxicity in”, “reduction in DSS-induced loss” for “induction”, “colon crypt and columnar epithelium” for “abnormalities in heart”", "format": "functional, organism-based"}, "[26]": {"system": "Mus musculus", "test": "Anti-colitis activity against DSS-induced C57BL/6 mouse model of chronic relapsing colitis assessed as reversal of DSS-induced colon shortening at 40 mg/kg, po administered once daily for 30 days starting from day 13 post DSS-challenge", "format": "functional, organism-based"}, "[27]": {"system": "Mus musculus", "test": "Anti-colitis activity against DSS-induced C57BL/6 mouse model of subchronic relapsing colitis assessed as effect on body weight at 40 mg/kg, po administered once daily for 14 days starting from day 5 post DSS challenge and measured after day 12 to day 18", "format": "functional, organism-based"}, "[28]": {"system": "Mus musculus", "test": "Anti-colitis activity against DSS-induced C57BL/6 mouse model of subchronic relapsing colitis assessed as reduction in DSS-induced colon swelling at 40 mg/kg, po administered once daily for 30 days starting from day 13 post DSS-challenge", "format": "functional, organism-based"}, "[29]": {"system": "Mus musculus", "test": "as §1, with “Anti-colitis activity against” for “Toxicity in”, “reduction” for “induction of abnormalities”, “DSS-induced multiple erosive lesions in colon” for “heart”", "format": "functional, organism-based"}, "[30]": {"system": "Mus musculus", "test": "Anti-colitis activity against DSS-induced C57BL/6 mouse model of subchronic relapsing colitis assessed as reduction in phosphorylated STAT3 level at 40 mg/kg, po administered once daily for 14 days starting from day 5 post DSS-challenge by Western blot analysis", "format": "functional, organism-based"}, "[31]": {"test": "Toxicity in DSS-induced C57BL/6 mouse model of chronic relapsing colitis assessed as induction of abnormalities in kidney at 40 mg/kg, po administered once daily for 30 days starting from day 13 post DSS-challenge by hematoxylin and eosin staining based light microscopic analysis", "format": "organism-based", "details": "in vivo, 720 h"}, "[32]": {"test": "Toxicity in DSS-induced C57BL/6 mouse model of chronic relapsing colitis assessed as induction of abnormalities in brain at 40 mg/kg, po administered once daily for 30 days starting from day 13 post DSS-challenge by hematoxylin and eosin staining based light microscopic analysis", "format": "organism-based", "details": "in vivo, 720 h"}, "[33]": {"system": "Mus musculus", "test": "Antiinflammatory activity against DSS-induced C57BL/6 mouse model of subchronic relapsing colitis assessed as reduction in TNFalpha mRNA level at 40 mg/kg, po administered once daily for 14 days starting from day 5 post DSS-challenge by RT-qPCR analysis", "format": "functional, organism-based"}, "[34]": {"system": "Mus musculus", "test": "Anti-colitis activity against DSS-induced C57BL/6 mouse model of chronic relapsing colitis assessed as reduction in stool consistency score at 40 mg/kg, po administered once daily for 30 days starting from day 13 post DSS-challenge measured on day 43", "format": "functional, organism-based"}}, "note": "Active and inactive are the calls of the source. No cut-off for these calls is given here.", "data": [{"smiles": "COc1ccc2cc3[n+](cc2c1OC)CCc1cc2c(cc1-3)OCO2.[Cl-]", "note": "[BERBERINE CHLORIDE]", "values": [{"measurement": "Activity", "setting": "[1]", "result": "Non-Toxic"}, {"measurement": "Activity", "setting": "[2]", "result": "Active"}, {"measurement": "Activity", "setting": "[3]", "result": "Active"}, {"measurement": "Activity", "setting": "[4]", "result": "inactive"}, {"measurement": "inhibition", "setting": "[5]", "result": "Active"}, {"measurement": "Activity", "setting": "[6]", "result": "Active"}, {"measurement": "Activity", "setting": "[7]", "result": "Active"}, {"measurement": "inhibition", "setting": "[8]", "result": "Active"}, {"measurement": "Activity", "setting": "[9]", "result": "inactive"}, {"measurement": "Activity", "setting": "[10]", "result": "Active"}, {"measurement": "Activity", "setting": "[11]", "result": "Non-Toxic"}, {"measurement": "Activity", "setting": "[12]", "result": "Active"}, {"measurement": "Activity", "setting": "[13]", "result": "Non-Toxic"}, {"measurement": "Activity", "setting": "[14]", "result": "Non-Toxic"}, {"measurement": "Activity", "setting": "[15]", "result": "Active"}, {"measurement": "Activity", "setting": "[16]", "result": "Active"}, {"measurement": "Activity", "setting": "[17]", "result": "inactive"}, {"measurement": "Activity", "setting": "[18]", "result": "Active"}, {"measurement": "Activity", "setting": "[19]", "result": "Active"}, {"measurement": "Activity", "setting": "[20]", "result": "Active"}, {"measurement": "Activity", "setting": "[21]", "result": "Active"}, {"measurement": "Activity", "setting": "[22]", "result": "Non-Toxic"}, {"measurement": "Activity", "setting": "[23]", "result": "Active"}, {"measurement": "Activity", "setting": "[24]", "result": "Active"}, {"measurement": "Activity", "setting": "[25]", "result": "Active"}, {"measurement": "Activity", "setting": "[26]", "result": "Active"}, {"measurement": "Activity", "setting": "[27]", "result": "inactive"}, {"measurement": "Activity", "setting": "[28]", "result": "inactive"}, {"measurement": "Activity", "setting": "[29]", "result": "Active"}, {"measurement": "Activity", "setting": "[30]", "result": "Active"}, {"measurement": "Activity", "setting": "[31]", "result": "Non-Toxic"}, {"measurement": "Activity", "setting": "[32]", "result": "Non-Toxic"}, {"measurement": "Activity", "setting": "[33]", "result": "Active"}, {"measurement": "Activity", "setting": "[34]", "result": "Active"}]}]}
